Target: HPK1 (Homo sapiens (Human), UniProt Q92918)
Assay: HPK1 Kinase Binding Assay
In short: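 Active HPK1 (added as 4 nM solution) was combined with compound (3-fold, 11-point series) and tracer 222 (18 nM) plus Eu-anti-GST antibody (4 nM) in 50 mM HEPES pH 7.5 with MgCl2 and DTT. After 1 h at 25 °C plates were read. Ki values were derived.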

Sequence of HPK1 (Q92918 1-346): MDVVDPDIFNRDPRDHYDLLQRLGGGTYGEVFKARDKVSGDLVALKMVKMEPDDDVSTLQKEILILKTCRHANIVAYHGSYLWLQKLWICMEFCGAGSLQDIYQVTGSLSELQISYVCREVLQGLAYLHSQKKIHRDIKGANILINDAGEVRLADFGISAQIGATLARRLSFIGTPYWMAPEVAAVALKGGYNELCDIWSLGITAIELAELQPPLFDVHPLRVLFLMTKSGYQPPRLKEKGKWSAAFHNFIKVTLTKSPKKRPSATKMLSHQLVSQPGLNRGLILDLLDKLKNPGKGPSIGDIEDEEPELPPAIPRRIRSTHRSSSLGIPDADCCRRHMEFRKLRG

SMILES	Ki [nM]
CNCc1cc(F)c(-c2cc3c(-c4cnn(CCO)c4)n[nH]c3cn2)c(F)c1 [Example 164, 2-(4-(5-(2,6-Difluoro-4-((methylamino)methyl)phenyl)-1H-pyrazolo[3,4-c]pyridin-3-yl)-1H-pyrazol-1-yl)ethanol]	≤ 100
CNCc1cc(F)c(-c2cc3c(-c4ccc(OC)cc4)n[nH]c3cn2)c(F)c1 [Example 165, 1-(3,5-Difluoro-4-(3-(4-methoxyphenyl)-1H-pyrazolo[3,4-c]pyridin-5-yl)phenyl)-N-methylmethanamine]	≤ 100
CNCc1cc(F)c(-c2cc3c(-c4ccc(N5CCC(O)CC5)nc4)n[nH]c3cn2)c(F)c1 [Example 166, 1-(5-(5-(2,6-Difluoro-4-((methylamino)methyl)phenyl)-1H-pyrazolo[3,4-c]pyridin-3-yl)pyridin-2-yl)piperidin-4-ol]	≤ 100
CNCc1cc(F)c(-c2cc3c(-c4ccc(N5CCC(F)C5)cn4)n[nH]c3cn2)c(F)c1 (stereo not drawn) [Example 167, 1-(3,5-Difluoro-4-(3-(5-(3-fluoropyrrolidin-1-yl)pyridin-2-yl)-1H-pyrazolo[3,4-c]pyridin-5-yl)phenyl)-N-methylmethanamine]	≤ 100
CNCc1cc(C)c(-c2cc3c(-c4cnn(C)c4)n[nH]c3cn2)c(F)c1 [Example 168, 1-(3-Fluoro-5-methyl-4-(3-(1-methyl-1H-pyrazol-4-yl)-1H-pyrazolo[3,4-c]pyridin-5-yl)phenyl)-N-methylmethanamine]	≤ 100
CNCc1cc(C)c(-c2cc3c(-c4ccc(C(=O)NC)cc4)n[nH]c3cn2)c(F)c1 [Example 169, 4-(5-(2-Fluoro-6-methyl-4-((methylamino)methyl)phenyl)-1H-pyrazolo[3,4-c]pyridin-3-yl)-N-methylbenzamide]	≤ 100
CNC(=O)c1ccc(-c2n[nH]c3cnc(-c4c(C)cc(C5CCCN5)cc4F)cc23)cc1 (stereo not drawn) [Example 170, 4-(5-(2-Fluoro-6-methyl-4-(pyrrolidin-2-yl)phenyl)-1H-pyrazolo[3,4-c]pyridin-3-yl)-N-methylbenzamide]	≤ 100
Cc1cc(C2CCCN2C)cc(F)c1-c1cc2c(-c3cnn(C)c3)n[nH]c2cn1 (stereo not drawn) [Example 173, 5-(2-Fluoro-6-methyl-4-(1-methylpyrrolidin-2-yl)phenyl)-3-(1-methyl-1H-pyrazol-4-yl)-1H-pyrazolo[3,4-c]pyridine]	≤ 100
CCNCc1cc(C)c(-c2cc3c(-c4cnn(C)c4)n[nH]c3cn2)c(F)c1 [Example 176, N-(3-Fluoro-5-methyl-4-(3-(1-methyl-1H-pyrazol-4-yl)-1H-pyrazolo[3,4-c]pyridin-5-yl)benzyl)ethanamine]	≤ 100
Cc1cc(CNC2CC2)cc(F)c1-c1cc2c(-c3cnn(C)c3)n[nH]c2cn1 [Example 177, N-(3-Fluoro-5-methyl-4-(3-(1-methyl-1H-pyrazol-4-yl)-1H-pyrazolo[3,4-c]pyridin-5-yl)benzyl)cyclopropanamine]	≤ 100
Cc1cc(CNC(C)C)cc(F)c1-c1cc2c(-c3cnn(C)c3)n[nH]c2cn1 [Example 178, N-(3-Fluoro-5-methyl-4-(3-(1-methyl-1H-pyrazol-4-yl)-1H-pyrazolo[3,4-c]pyridin-5-yl)benzyl)propan-2-amine]	≤ 100
Cc1cc(CNCC(F)(F)F)cc(F)c1-c1cc2c(-c3cnn(C)c3)n[nH]c2cn1 [Example 179, 2,2,2-Trifluoro-N-(3-fluoro-5-methyl-4-(3-(1-methyl-1H-pyrazol-4-yl)-1H-pyrazolo[3,4-c]pyridin-5-yl)benzyl)ethanamine]	≤ 100
Cc1cc(CNCCO)cc(F)c1-c1cc2c(-c3cnn(C)c3)n[nH]c2cn1 [Example 180, 2-(3-Fluoro-5-methyl-4-(3-(1-methyl-1H-pyrazol-4-yl)-1H-pyrazolo[3,4-c]pyridin-5-yl)benzylamino)ethanol]	≤ 100
Cc1cc(CNC2CC(O)C2)cc(F)c1-c1cc2c(-c3cnn(C)c3)n[nH]c2cn1 (stereo not drawn) [Example 181, 3-(3-Fluoro-5-methyl-4-(3-(1-methyl-1H-pyrazol-4-yl)-1H-pyrazolo[3,4-c]pyridin-5-yl)benzylamino)cyclobutanol]	≤ 100
Cc1cc(CN2CCC2)cc(F)c1-c1cc2c(-c3cnn(C)c3)n[nH]c2cn1 [Example 182, 5-(4-(Azetidin-1-ylmethyl)-2-fluoro-6-methylphenyl)-3-(1-methyl-1H-pyrazol-4-yl)-1H-pyrazolo[3,4-c]pyridine]	≤ 100
Cc1cc(CN2CCC(O)C2)cc(F)c1-c1cc2c(-c3cnn(C)c3)n[nH]c2cn1 (stereo not drawn) [Example 183, 1-(3-Fluoro-5-methyl-4-(3-(1-methyl-1H-pyrazol-4-yl)-1H-pyrazolo[3,4-c]pyridin-5-yl)benzyl)pyrrolidin-3-ol]	≤ 100
Cc1cc(CNCC(C)(C)O)cc(F)c1-c1cc2c(-c3cnn(C)c3)n[nH]c2cn1 [Example 184, 1-(3-Fluoro-5-methyl-4-(3-(1-methyl-1H-pyrazol-4-yl)-1H-pyrazolo[3,4-c]pyridin-5-yl)benzylamino)-2-methylpropan-2-ol]	≤ 100

SMILES	Ki [nM]
COC1CN(Cc2cc(C)c(-c3cc4c(-c5cnn(C)c5)n[nH]c4cn3)c(F)c2)C1 [Example 185, 5-(2-Fluoro-4-((3-methoxyazetidin-1-yl)methyl)-6-methylphenyl)-3-(1-methyl-1H-pyrazol-4-yl)-1H-pyrazolo[3,4-c]pyridine]	≤ 100
Cc1cc(CNCc2cn(C)cn2)cc(F)c1-c1cc2c(-c3cnn(C)c3)n[nH]c2cn1 [Example 186, N-(3-Fluoro-5-methyl-4-(3-(1-methyl-1H-pyrazol-4-yl)-1H-pyrazolo[3,4-c]pyridin-5-yl)benzyl)-1-(1-methyl-1H-imidazol-4-yl)methanamine]	≤ 100
Cc1cc(CNCc2cocn2)cc(F)c1-c1cc2c(-c3cnn(C)c3)n[nH]c2cn1 [Example 187, N-(3-Fluoro-5-methyl-4-(3-(1-methyl-1H-pyrazol-4-yl)-1H-pyrazolo[3,4-c]pyridin-5-yl)benzyl)-1-(oxazol-4-yl)methanamine]	≤ 100
Cc1cc(CNCC#N)cc(F)c1-c1cc2c(-c3cnn(C)c3)n[nH]c2cn1 [Example 188, 2-(3-Fluoro-5-methyl-4-(3-(1-methyl-1H-pyrazol-4-yl)-1H-pyrazolo[3,4-c]pyridin-5-yl)benzylamino)acetonitrile]	≤ 100
CC(=O)NCc1cc(C)c(-c2cc3c(-c4cnn(C)c4)n[nH]c3cn2)c(F)c1 [Example 191, N-(3-Fluoro-5-methyl-4-(3-(1-methyl-1H-pyrazol-4-yl)-1H-pyrazolo[3,4-c]pyridin-5-yl)benzyl)acetamide]	≤ 100
COC(=O)NCc1cc(C)c(-c2cc3c(-c4cnn(C)c4)n[nH]c3cn2)c(F)c1 [Example 192, Methyl 3-fluoro-5-methyl-4-(3-(1-methyl-1H-pyrazol-4-yl)-1H-pyrazolo[3,4-c]pyridin-5-yl)benzylcarbamate]	≤ 100
CNCc1cc(F)c(-c2cc3c(-c4ccc(N5CCN(C(C)=O)CC5)cn4)n[nH]c3cn2)c(OC(F)F)c1 [Example 193, 1-(4-(6-(5-(2-(Difluoromethoxy)-6-fluoro-4-((methylamino)methyl)phenyl)-1H-pyrazolo[3,4-c]pyridin-3-yl)pyridin-3-yl)piperazin-1-yl)ethanone]	≤ 100
CN1CCN(c2ccc(-c3n[nH]c4cnc(-c5c(F)cccc5CC#N)cc34)cc2)CC1 [Example 194, 2-(3-Fluoro-2-(3-(4-(4-methylpiperazin-1-yl)phenyl)-1H-pyrazolo[3,4-c]pyridin-5-yl)phenyl)acetonitrile]	≤ 100
CN1CCN(c2ccc(-c3n[nH]c4cnc(-c5c(F)cccc5CN)cc34)cc2)CC1 [Example 195, (3-Fluoro-2-(3-(4-(4-methylpiperazin-1-yl)phenyl)-1H-pyrazolo[3,4-c]pyridin-5-yl)phenyl)methanamine]	≤ 100
CN1CCN(c2ccc(-c3n[nH]c4cnc(-c5c(F)cccc5CO)cc34)cc2)CC1 [Example 196, (3-Fluoro-2-(3-(4-(4-methylpiperazin-1-yl)phenyl)-1H-pyrazolo[3,4-c]pyridin-5-yl)phenyl)methanol]	≤ 100
CNC1CCc2c1cc(F)c(-c1cc3c(-c4ccc(N5CCN(C)CC5)cc4)n[nH]c3cn1)c2F (stereo not drawn) [Example 197, 4,6-Difluoro-N-methyl-5-(3-(4-(4-methylpiperazin-1-yl)phenyl)-1H-pyrazolo[3,4-c]pyridin-5-yl)-2,3-dihydro-1H-inden-1-amine]	≤ 100
CNC1CCc2c1cc(F)c(-c1cc3c(-c4cnn(C)c4)n[nH]c3cn1)c2F (stereo not drawn) [Example 198, 4,6-Difluoro-N-methyl-5-(3-(1-methyl-1H-pyrazol-4-yl)-1H-pyrazolo[3,4-c]pyridin-5-yl)-2,3-dihydro-1H-inden-1-amine]	≤ 100
CNC1CCc2cc(F)c(-c3cc4c(-c5ccc(N6CCN(C)CC6)cc5)n[nH]c4cn3)c(F)c2C1 (stereo not drawn) [Example 199, 6,8-Difluoro-N-methyl-7-(3-(4-(4-methylpiperazin-1-yl)phenyl)-1H-pyrazolo[3,4-c]pyridin-5-yl)-1,2,3,4-tetrahydronaphthalen-2-amine]	≤ 100
CNC1CCc2cc(F)c(-c3cc4c(-c5cnn(C)c5)n[nH]c4cn3)c(F)c2C1 (stereo not drawn) [Example 200, 6,8-Difluoro-N-methyl-7-(3-(1-methyl-1H-pyrazol-4-yl)-1H-pyrazolo[3,4-c]pyridin-5-yl)-1,2,3,4-tetrahydronaphthalen-2-amine]	≤ 100
CNC(=O)c1ccc(-c2n[nH]c3cnc(-c4c(F)cc5c(c4F)CCCC5NC)cc23)cc1 (stereo not drawn) [Example 201, 4-(5-(1,3-Difluoro-5-(methylamino)-5,6,7,8-tetrahydronaphthalen-2-yl)-1H-pyrazolo[3,4-c]pyridin-3-yl)-N-methylbenzamide]	≤ 100
CNC1CCCc2c1cc(F)c(-c1cc3c(-c4cnn(C)c4)n[nH]c3cn1)c2F (stereo not drawn) [Example 202, 5,7-Difluoro-N-methyl-6-(3-(1-methyl-1H-pyrazol-4-yl)-1H-pyrazolo[3,4-c]pyridin-5-yl)-1,2,3,4-tetrahydronaphthalen-1-amine]	≤ 100

Source: patent US10435405B2, “Pyrazolopyridine compounds and uses thereof” (Incyte Corporation, priority 2016, dated 2019)
